Publication PMC7887271, “Fast acting allosteric phosphofructokinase inhibitors block trypanosome glycolysis and cure acute African trypanosomiasis in mice” (Nature Communications, 2021)
“And” between values parts separate entries of the source, which are not always exact repeats. Equal values may be shown once. Read-outs that look alike come from different tables or passages of the source.

Experiments:
[1] = molecular target: T1, T. brucei phosphofructokinase (TbPFK) (Trypanosoma brucei brucei, UniProt O15648); assay: ADP-Glo assay for measuring PFK inhibition; assay type: biochemical; settings: for RLU, avg / RLU, individual replicates: SuppFig1
T1 construct: made in house; host or cells: Escherichia coli C41 (pET28a, codon optimised gene)
T1 sequence (O15648 1-487): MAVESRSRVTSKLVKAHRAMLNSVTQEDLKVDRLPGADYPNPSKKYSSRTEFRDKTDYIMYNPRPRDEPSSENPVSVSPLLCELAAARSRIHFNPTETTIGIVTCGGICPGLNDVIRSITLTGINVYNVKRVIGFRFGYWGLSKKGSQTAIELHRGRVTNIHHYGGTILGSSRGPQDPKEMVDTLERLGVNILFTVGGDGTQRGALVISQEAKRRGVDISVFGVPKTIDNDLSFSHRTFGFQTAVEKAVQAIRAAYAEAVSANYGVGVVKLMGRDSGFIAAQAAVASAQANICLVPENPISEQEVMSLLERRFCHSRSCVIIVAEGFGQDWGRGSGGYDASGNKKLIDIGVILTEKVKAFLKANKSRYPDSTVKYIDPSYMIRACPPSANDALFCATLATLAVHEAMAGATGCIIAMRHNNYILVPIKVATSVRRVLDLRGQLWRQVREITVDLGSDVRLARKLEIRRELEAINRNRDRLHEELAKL
Protocol: Parasite enzyme kinetic data were measured using N-terminally His6-tagged TbPFK expressed in Escherichia coli C41 cells, using a codon optimised gene inserted in a pET28a vector (Supplementary Methods 1). Recombinant human PFKs were expressed in PFK-deficient Saccharomyces cerevisiae. PFK enzyme inhibition was measured using an ADP-Glo^TM assay (Promega) in a 96-well plate format (Supplementary Methods 2.1), using a Spectramax© M5 Multimode Plate Reader to measure luminescence values which were converted to ADP concentrations. IC50 values were determined using a sigmoidal curve fitting algorithm in Kaleidagraph 4 (Supplementary Fig. 1). Mode of action studies were carried out using a linked enzyme assay coupling the forward reaction of TbPFK to the M1 isoform of human pyruvate kinase followed by lactate dehydrogenase. The change in UV absorbance at 340 nm resulting from the conversion of NADH to NAD^+ was measured at 25 °C in ‘kinetic mode’ on a Spectramax© M5 Multimode plate reader. Initial velocities were plotted against substrate concentration to give curves showing non-competitive inhibition (Supplementary Fig. 2). An alternative linked enzyme assay was developed to control for the potential inhibitory activity of ATP on human PFK (Supplementary Methods 2.3).
The ADP-Glo™ end-point assay kit manufactured by Promega (cat. No. V9102) was used to measure ADP produced in the phosphofructokinase reaction:
Following this kinase reaction, the addition of a reagent results in any unused background ATP being removed and the reaction is sequestered. A second reagent is then added to convert the remaining ADP to ATP which is coupled to the luciferase/luciferin reaction to produce light. ‘Ultrapure’ ATP and ADP from Promega were used to reduce background noise. All reagents additional to those provided in the Promega ADP-Glo™ kit were purchased from Sigma-Aldrich.
The assay buffer comprised 50 mM triethanolamine (TEA), 10 mM MgCl2, 5 mM KCl, 0.1% w/v bovine serum albumin (BSA), 0.005% Tween-20, 1% DMSO, pH 7.4. A 3-fold serial dilution of 250x inhibitor stocks was carried out in 100% DMSO. 2 µl of these dilutions was added to 198 µl assay buffer and mixed well using a multichannel pipette. […] Concentration ranges of inhibitor compounds were 40 - 0.006 µM (final concentration, 1% DMSO). The PFK reaction in the presence of inhibitor was carried out using 10 µl of 1 µg/ml PFK (final concentration 0.4 µg/ml) which was added to 10 µl of the 1% DMSO inhibitor compound serial dilutions in a white, non-binding 96-well plate (Greiner BioOne 655904). CTCB-001 was used as a positive control at a final concentration of 5 µM. Assay buffer containing 1% DMSO was added instead of inhibitor compound for the negative control. The protein/inhibitor mixture was incubated for 10 minutes at room temperature (RT). The kinase reaction was started by adding a 5x ATP/F6P stock in assay buffer (final concentrations 0.5 mM F6P and 0.1 mM ATP). Plates were then sealed, centrifuged at 560 x g for 30 seconds and incubated at RT for 30 minutes. 25 µl of ‘ADP-Glo™ Reagent’ was then added to each well, mixed using a multichannel pipette and incubated at room temperature for 40 minutes. 50 µl of ‘Kinase Detection Reagent’ was added and incubated for 50 minutes at RT. The luminescence was recorded using a Spectramax© M5 Multi-mode Plate Reader (Molecular Devices) in single-point mode, with an integration time of 750 milliseconds. The luminescence values were converted to ADP concentration using a standard calibration curve for ADP. The resulting ADP concentrations were plotted as a function of inhibitor compound concentration using Kaleidagraph 4.0 software. The data were analysed using non-linear regression and a sigmoidal curve was fitted (Supplementary Figure 1) to determine the IC50. Kaleidagraph 4.0 uses the Levenberg-Marquardt algorithm in an iterative procedure to fit non-linear curves. […] The slope of the curve at the midpoint (m4) was set to 1.

[2] = Plasma protein binding, human plasma; assay type: in vitro ADME; settings: equilibrium dialysis, read-out: Human plasma protein binding fu(%)
Protocol: (§1) A HepG2 cytotoxicity assay was used to determine a cellular selectivity index. HepG2 cells were seeded into 96-well plates in EMEM medium. Compounds were assessed for their effect upon cellular viability (Supplementary Methods 5.1). Inhibition of CYP450 was determined using kits from BD Biosciences (Supplementary Methods 5.2). Metabolic stability was determined using mouse […] tested at a single concentration of 5 µM. Plasma protein binding was determined using mouse and human plasma at a single concentration of 10 µM (Supplementary Methods 5.4). All PK studies in mice were carried out by Pharmidex (Supplementary Methods 6.1).
Compounds were tested for protein binding using mouse and human plasma at a single concentration of 10 µM and measured by equilibrium dialysis between plasma and buffer. The amount of parent was determined on both sides of the membrane after incubating for 4 hours at 37 °C. The samples were crashed with acetonitrile and put through protein precipitation plates. The eluent was analysed by LC/MS or LC/MS/MS. Output was percentage bound.

[3] = Metabolic stability, human liver microsomes; assay type: in vitro ADME; settings: read-out: HLM Clint
Protocol: as §1
Compounds were tested for their metabolic stability using mouse and human liver microsomes (MLM and HLM). The compounds were tested at a single concentration of 5 µM. The samples were crashed with acetonitrile and put through protein precipitation plates. The eluent was analysed by LC/MS or LC/MS/MS.

[4] = ADP-Glo, mean ± SD, read-out: IC50 (µM) for inhibition of T. brucei phosphofructokinase (PFK IC50)
[5] = source data, read-out: IC50 (µM), single dated measurement
[6] = source data for Fig. 2 and Table 1, read-out: Average IC50

CN(C)CCn1ccc2c(ccn2Cc2ccc(Cl)c(Cl)c2)c1=O [CTCB 405]
RLU, avg ([1]; Conc 0.00640146 uM): 39926.3 RLU
RLU, individual replicates ([1]; Conc 0.00640146 uM): 40029.2 RLU and 39823.3 RLU
RLU, avg ([1]; Conc 0.0192044 uM): 39977.3 RLU
RLU, individual replicates ([1]; Conc 0.0192044 uM): 42153.7 RLU and 37800.9 RLU
RLU, avg ([1]; Conc 0.0576132 uM): 34288.1 RLU
RLU, individual replicates ([1]; Conc 0.0576132 uM): 36858 RLU and 31718.2 RLU
RLU, avg ([1]; Conc 0.17284 uM): 23285 RLU
RLU, individual replicates ([1]; Conc 0.17284 uM): 25069.7 RLU and 21500.2 RLU
RLU, avg ([1]; Conc 0.518519 uM): 10488.4 RLU
RLU, individual replicates ([1]; Conc 0.518519 uM): 11745.9 RLU and 9230.85 RLU
RLU, avg ([1]; Conc 1.55556 uM): 4498.05 RLU
RLU, individual replicates ([1]; Conc 1.55556 uM): 4537.49 RLU and 4458.6 RLU
RLU, avg ([1]; Conc 4.66667 uM): 2709.41 RLU
RLU, individual replicates ([1]; Conc 4.66667 uM): 2899.92 RLU and 2518.91 RLU
RLU, avg ([1]; Conc 14 uM): 1717.44 RLU
RLU, individual replicates ([1]; Conc 14 uM): 1947.39 RLU and 1487.48 RLU

CN(C)CCn1ccc2c(ccn2Cc2ccc(Cl)c(Cl)c2)c1=O [CTCB-405, 1-[(3,4-Dichlorophenyl)methyl]-5-[2-(dimethylamino)ethyl] pyrrolo[3,2-c]pyridin-4-one]
fraction unbound at 4 h, 10 µM [2]: 0.063
IC50 [1, 4]: 0.18 ± 0.03 µM
IC50 [1, 5]: 0.209 µM and 0.202 µM and 0.134 µM and 0.19 µM
microsomal CLint at 5 µM [3]: < 8.6 µL/min/mg

CNCCn1ccc2c(ccn2Cc2ccc(Cl)c(Cl)c2)c1=O [CTCB-435]
IC50 [1, 6]: 0.12 µM
IC50 [1, 5]: 0.111 µM and 0.127 µM

CN(C)CCn1ccc2c(ccn2Cc2ccc(Cl)c(Br)c2)c1=O [CTCB-470, 1-[(3-Bromo-4-chlorophenyl)methyl]-5-[2-(dimethylamino)ethyl] pyrrolo[3,2-c]pyridin-4-one]
fraction unbound at 4 h, 10 µM [2]: 0.032
IC50 [1, 6]: 0.21 µM
IC50 [1, 5]: 0.137 µM and 0.154 µM and 0.209 µM and 0.359 µM
microsomal CLint at 5 µM [3]: 17 µL/min/mg

CN(C)CCn1ccc2c(ccn2Cc2ccc(F)c(Br)c2)c1=O [CTCB-508, 1-[(3-Bromo-4-fluorophenyl)methyl]-5-[2-(dimethylamino)ethyl] pyrrolo[3,2-c]pyridin-4-one]
fraction unbound at 4 h, 10 µM [2]: 0.21
IC50 [1, 4]: 0.2 ± 0.05 µM
IC50 [1, 5]: 0.13 µM and 0.229 µM and 0.25 µM
microsomal CLint at 5 µM [3]: < 8.6 µL/min/mg
